Assay [1] has as its target T1, Apoptosis regulator Bcl-2 (Homo sapiens, UniProt P10415). The experiment in a line: Inhibition of FAM-labeled Bid BH3 peptide binding to human recombinant BCL2 by fluorescence polarization assay relative to control. (Fluorescence polarisation rises when a labelled molecule tumbles more slowly, as on binding a larger partner.)
For assay [2], the target named is T2, Induced myeloid leukemia cell differentiation protein Mcl-1 (Homo sapiens, UniProt Q07820). Kind of assay: Inhibition of FAM-labeled Bid BH3 peptide binding to human recombinant MCL1 by fluorescence polarization assay relative to control.
Assay [3] concerns the target T1, Apoptosis regulator Bcl-2. Kind of assay: Inhibition of FITC-labeled Bim BH3 peptide binding to GST-tagged BCL2 (unknown origin) preincubated for 2 mins followed by FITC-labeled Bim BH3 peptide addition measured after 10 mins by fluorescence polarization assay.
The target of assay [4] is T2, Induced myeloid leukemia cell differentiation protein Mcl-1. The experiment in a line: Inhibition of biotinylated Bim BH3 peptide binding to GST-tagged MCL1 (unknown origin) preincubated for 15 mins followed by biotinylated Bim BH3 peptide addition measured after 2 hrs by ELISA. In general terms: ELISA stands for enzyme-linked immunosorbent assay.
In assay [5] the test system is MEF. The experiment in a line: Induction of apoptosis in MEF assessed as dead cells at 10 uM after 24 hrs by Annexin V/propidium iodide staining based method relative to control. The assay is classed as functional, Mus musculus.
The target in assay [6] is T2, Induced myeloid leukemia cell differentiation protein Mcl-1. Kind of assay: Inhibition of fluorescein-labeled Bid BH3 peptide (79 to 99 residues) binding to His-tagged MCL1 (171 to 327 residues) (unknown origin) expressed in Escherichia coli Bl21(DE3) cells incubated for 3 hrs by fluorescence polarization assay.
The subject of assay [7] is MEF. Kind of assay: Induction of apoptosis in […] double knock out MEF assessed as dead cells at 10 uM after 24 hrs by Annexin V/propidium iodide staining based method relative to control. The assay is classed as functional, Mus musculus.
Assay [8] deals with T1, Apoptosis regulator Bcl-2. Kind of assay: Inhibition of FITC-labeled Bid BH3 peptide binding to human GST-tagged BCL2 lacking C-terminal transmembrane domain expressed in Escherichia coli XL-1 Blue cells preincubated for 10 mins followed by FITC-labeled Bid BH3 peptide addition measured after 20 mins by fluorescence polarization assay.
In assay [9] the target is T2, Induced myeloid leukemia cell differentiation protein Mcl-1. The experiment in a line: Inhibition of FITC-labeled Bid BH3 peptide binding to human GST-tagged MCL1 lacking C-terminal transmembrane domain expressed in Escherichia coli XL-1 Blue cells preincubated for 10 mins followed by FITC-labeled Bid BH3 peptide addition measured after 20 mins by fluorescence polarization assay.

The target of assay [10] is Induced myeloid leukemia cell differentiation protein Mcl-1 homolog (Mus musculus, UniProt P97287). The experiment in a line: Inhibition of biotinylated Bim BH3 peptide binding to recombinant GST-tagged mouse MCL1 with N-terminal truncation of 151 residues and C-terminal truncation of 23 residues expressed in Escherichia coli BL21(DE3) cells preincubated for 1 hr followed by biotinylated Bim BH3 peptide addition measured after 1 hr by ELISA.

Assay [11] addresses T2, Induced myeloid leukemia cell differentiation protein Mcl-1. Kind of assay: Inhibition of 5-FAM-labeled Bid BH3 peptide binding to MCL1 (unknown origin) at 50 uM by fluorescence polarization assay relative to control.
Assay [12] has the same target. Kind of assay: Inhibition of 5-FAM-labeled Bid BH3 peptide binding to MCL1 (unknown origin) by fluorescence polarization assay.
A short description of assay [13]: Inhibition of FAM-labeled Bid BH3 peptide binding to recombinant N-terminal His8-tagged human MCL1 (209 to 327 residues)/mouse MCL1 (152 to189 residues) expressed in Escherichia coli BL21(DE3) cells preincubated for 30 mins followed by FAM-labeled Bid BH3 peptide addition measured after 20 mins by fluorescence polarization assay.
In a further assay the target is Bcl-2-like protein 1 (Homo sapiens, UniProt Q07817). The experiment in a line: Inhibition of FAM-labeled Bim BH3 peptide binding to recombinant human N-terminal GST-tagged Bcl-XL (1 to 212 residues) expressed in Escherichia coli BL21(DE3) cells preincubated for 30 mins followed by FAM-labeled Bim BH3 peptide addition measured after 20 mins by fluorescence polarization assay.

For assay [14], the target named is T1, Apoptosis regulator Bcl-2. The experiment in a line: Inhibition of FAM-labeled Bid BH3 peptide binding to recombinant human N-terminal GST-tagged BCL2 (1 to 34/ 92 to 207 residues) fused with human Bcl-XL expressed in Escherichia coli BL21(DE3) cells preincubated for 30 mins followed by FAM-labeled Bid BH3 peptide addition measured after 20 mins by fluorescence polarization assay.

The nature of assay [15]: Inhibition of FITC-labeled Bid BH3 peptide binding to GST-tagged MCL1 harboring N-terminal and C-terminal point mutant (unknown origin) expressed in Escherichia coli Bl21(DE3) cells by fluorescence polarization assay. Further details: species or system Homo sapiens.
Assay [16] addresses T2, Induced myeloid leukemia cell differentiation protein Mcl-1. The experiment in a line: Binding affinity to MCL1 (unknown origin) incubated for 30 mins by TR-FRET assay.

Molecules are shown by their SMILES.

By Ki is commonly meant a dissociation constant, usually derived from enzyme kinetics or from competition with a known ligand. The term IC50 denotes the point on the concentration scale where inhibition reaches its midpoint. A word on the inhibition: it is the percentage by which the read-out fell short of the control. A low value points to a response near the control.

T2 sequence (Q07820 whole entry): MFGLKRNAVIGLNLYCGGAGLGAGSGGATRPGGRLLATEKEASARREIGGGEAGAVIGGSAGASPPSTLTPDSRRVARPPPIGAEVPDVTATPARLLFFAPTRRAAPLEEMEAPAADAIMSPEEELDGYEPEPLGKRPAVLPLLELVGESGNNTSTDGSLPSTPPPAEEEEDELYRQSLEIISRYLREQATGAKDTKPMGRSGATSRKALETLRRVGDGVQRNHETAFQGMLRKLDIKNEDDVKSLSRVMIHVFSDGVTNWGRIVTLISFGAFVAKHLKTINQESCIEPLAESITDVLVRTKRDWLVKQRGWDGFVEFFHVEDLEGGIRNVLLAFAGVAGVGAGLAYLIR
T1 sequence (P10415 whole entry): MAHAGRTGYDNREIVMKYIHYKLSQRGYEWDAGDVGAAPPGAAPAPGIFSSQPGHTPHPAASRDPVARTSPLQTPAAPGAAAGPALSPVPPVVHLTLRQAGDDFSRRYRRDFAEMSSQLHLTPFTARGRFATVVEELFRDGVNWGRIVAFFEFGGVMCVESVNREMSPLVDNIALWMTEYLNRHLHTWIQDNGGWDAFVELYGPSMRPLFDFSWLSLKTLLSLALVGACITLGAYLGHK
Bcl-2-like protein 1, sequence (Q07817 whole entry, the tested form may be a part): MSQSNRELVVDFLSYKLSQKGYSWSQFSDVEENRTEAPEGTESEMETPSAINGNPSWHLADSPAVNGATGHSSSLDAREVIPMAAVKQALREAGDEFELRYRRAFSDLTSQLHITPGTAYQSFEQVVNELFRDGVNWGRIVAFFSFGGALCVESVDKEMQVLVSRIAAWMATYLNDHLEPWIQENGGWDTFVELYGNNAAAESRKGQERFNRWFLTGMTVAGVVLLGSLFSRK
Induced myeloid leukemia cell differentiation protein Mcl-1 homolog, sequence (P97287 whole entry, the tested form may be a part): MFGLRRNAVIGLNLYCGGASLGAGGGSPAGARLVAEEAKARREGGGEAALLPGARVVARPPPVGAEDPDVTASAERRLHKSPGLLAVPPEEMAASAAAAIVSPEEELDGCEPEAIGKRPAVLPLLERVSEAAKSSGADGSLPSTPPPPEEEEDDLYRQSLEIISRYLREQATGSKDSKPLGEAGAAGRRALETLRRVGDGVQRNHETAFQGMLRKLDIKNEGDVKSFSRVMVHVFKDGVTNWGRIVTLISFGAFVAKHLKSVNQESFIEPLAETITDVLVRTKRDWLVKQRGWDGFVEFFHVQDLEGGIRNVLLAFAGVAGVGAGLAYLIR

On to `CC(C)c1ccccc1Cc1cc(C(=O)Nc2ccc(S(=O)(=O)c3ccccc3C(C)(C)C)cc2)c(O)c(O)c1O`, for which the Ki in assay [1] and in [2] was less than 300 nM each time.

The compound `Cc1cc2c(C(C)C)c(O)c(O)cc2c(O)c1-c1c(C)cc2c(C(C)C)c(O)c(O)cc2c1O` [APOGOSSYPOL] registered a Ki in [3] of 2800 nM.

Take `O=C1c2ccc(OS(=O)(=O)C(F)(F)F)cc2Oc2c(Cl)cc(C(=O)c3ccccc3O)n2-c2c1[nH]c(Cl)c2Cl`: in assay [4], the IC50 came out at 1400 nM.

In the case of `O=C(O)CSc1cc(NS(=O)(=O)c2ccc(Br)cc2)c2ccccc2c1O`, the Activity with MEF [5] was 60%; in the assay on MEF [7], 16%. Further, in assay [6], affinity was put at a Ki of 1870 nM.

On to `COC1=CC(c2cc3ccccc3[nH]2)=N/C1=C\c1[nH]c(C)cc1C` [OBATOCLAX], for which the half-maximal inhibitory concentration (IC50) in [8] was 1110 nM; in assay [9], 2900 nM.

As to `O=C(c1ccccc1O)c1[nH]c(Cl)c(Cl)c1-n1c(C(=O)c2ccccc2O)cc(Cl)c1Cl`, the IC50 in [10] came out at 10000 nM.

As to `O=C(Cc1cc(O)c(O)c(O)c1)NCc1ccc(C(=O)N2CCN(Cc3ccccc3-c3ccccc3)CC2)cc1`, in assay [11], the inhibition was determined as 66%. The compound further returned an inhibitory constant (Ki) in assay [12] of 180 nM.

With `CCOC(=O)C1=C(C)N=c2s/c(=C\c3cn(Cc4ccc(-c5ccccc5)cc4)c4ccccc34)c(=O)n2C1c1ccccc1` (stereo not given), the figures for the Ki (in assay [13]; on Bcl-2-like protein 1; in assay [14]) were 200 nM, 17 nM and 530 nM, respectively.

For `O=C(O)CSc1cc(NS(=O)(=O)c2ccc(Oc3ccc(F)cc3)cc2)c2ccccc2c1O`, the IC50 in assay [6] stood at 170 nM.

For `O=C(O)CSc1cc(NS(=O)(=O)c2ccc(-c3ccc(Cl)cc3)cc2)c2ccccc2c1O`, the half-inhibitory concentration (IC50) in assay [6] turned out to be 170 nM.

On to `Cc1cs/c(=N\C2CCCCC2)n1/N=C/c1ccc(O)c(O)c1O`, for which the concentration for half-maximal inhibition (IC50) in assay [15] worked out at 4780 nM.

As for `CC1(C)CCC(CN2CCN(c3ccc(C(=O)NS(=O)(=O)c4ccc(NCC5CCOCC5)c([N+](=O)[O-])c4)c(Oc4cnc5[nH]ccc5c4)c3)CC2)=C(c2ccc(Cl)cc2)C1` [VENETOCLAX], the inhibition constant (Ki) in assay [16] was greater than 444 nM.

Consider `O=C(O)CSc1cc(NS(=O)(=O)c2ccc(-c3ccc(F)cc3F)cc2)c2ccccc2c1O`, for which the IC50 in [6] stood at 170 nM.
